{"source": "the supplement of paper PMC10307832", "test_in_all_cases": "relative viability (nuclei count vs DMSO), 5 days (fraction); higher = more cells survive", "key": {"Cediranib + Luminespib": {"compound": "COc1cc2c(Oc3ccc4[nH]c(C)cc4c3F)ncnc2cc1OCCCN1CCCC1 [Cediranib] + CCNC(=O)c1noc(-c2cc(C(C)C)c(O)cc2O)c1-c1ccc(CN2CCOCC2)cc1 [Luminespib] (partner 0.01 µM)", "how_it_was_run": "(§1)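 Lung cancer cell lines in 1536-well plates were dosed by pin tool the day after seeding, either with one drug alone or with a fixed anchor-drug dose plus five library-drug doses (not always all listed) in √10 steps. After 5 days, cells were fixed and their nuclei stained in one step (final 0.05% Triton X-100, 1% formaldehyde, 1 ug/ml Hoechst), then counted on 4× images. Relative viability is the nuclei count in treated wells divided by that in vehicle wells. Values are medians of duplicate plates.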"}, "Cediranib + Tozasertib": {"compound": "COc1cc2c(Oc3ccc4[nH]c(C)cc4c3F)ncnc2cc1OCCCN1CCCC1 [Cediranib] + Cc1cc(Nc2cc(N3CCN(C)CC3)nc(Sc3ccc(NC(=O)C4CC4)cc3)n2)n[nH]1 [Tozasertib] (partner 0.1 µM)", "how_it_was_run": "as §1"}, "Halofuginone + OSI-027": {"compound": "O=C(C[C@H]1NCCC[C@@H]1O)Cn1cnc2cc(Br)c(Cl)cc2c1=O (racemic) [Halofuginone] + COc1cccc2cc(-c3nc([C@H]4CC[C@H](C(=O)O)CC4)n4ncnc(N)c34)[nH]c12 [OSI-027] (partner 0.5 µM)", "how_it_was_run": "as §1"}, "[1]": {"compound": "O=C(C[C@H]1NCCC[C@@H]1O)Cn1cnc2cc(Br)c(Cl)cc2c1=O (racemic) [Halofuginone] + O=C(CCCCCCC(=O)Nc1ccccc1)NO [Vorinostat] (partner 1 µM)", "how_it_was_run": "as §1"}}}
{"cell line": "UMC-11", "values": [{"measurement": "relative viability", "setting": "Cediranib + Luminespib; first compound 0.04 µM", "value": 1.14}, {"measurement": "relative viability", "setting": "Cediranib + Luminespib; first compound 0.4 µM", "value": 1.04}, {"measurement": "relative viability", "setting": "Cediranib + Luminespib; first compound 4 µM", "value": 0.903}, {"measurement": "relative viability", "setting": "Cediranib + Tozasertib; first compound 0.04 µM", "value": 0.213}, {"measurement": "relative viability", "setting": "Cediranib + Tozasertib; first compound 0.4 µM", "value": 0.201}, {"measurement": "relative viability", "setting": "Cediranib + Tozasertib; first compound 4 µM", "value": 0.2}, {"measurement": "relative viability", "setting": "Halofuginone + OSI-027; first compound 0.001 µM", "value": 0.44}, {"measurement": "relative viability", "setting": "Halofuginone + OSI-027; first compound 0.003162 µM", "value": 0.461}, {"measurement": "relative viability", "setting": "Halofuginone + OSI-027; first compound 0.01 µM", "value": 0.467}, {"measurement": "relative viability", "setting": "Halofuginone + OSI-027; first compound 0.03162 µM", "value": 0.46}, {"measurement": "relative viability", "setting": "Halofuginone + OSI-027; first compound 0.1 µM", "value": 0.368}, {"measurement": "relative viability", "setting": "[1]; first compound 0.001 µM", "value": 0.428}, {"measurement": "relative viability", "setting": "[1]; first compound 0.003162 µM", "value": 0.381}, {"measurement": "relative viability", "setting": "[1]; first compound 0.01 µM", "value": 0.348}, {"measurement": "relative viability", "setting": "[1]; first compound 0.03162 µM", "value": 0.334}, {"measurement": "relative viability", "setting": "[1]; first compound 0.1 µM", "value": 0.205}]}
